In paper PMC9025269, “Synthesis and Anti-Hepatitis B Activities of 3′-Fluoro-2′-Substituted Apionucleosides” (Molecules, 2022):
pIC50: −log10 of the molar value.

Key:
[1] = target: T1, HIV-1 reverse transcriptase (HIV-1 RT) (Human immunodeficiency virus type 1 group M subtype B, UniProt P03366); assay: HIV-1 reverse transcriptase RdDp activity assay; assay type: biochemical
T1 construct: HIV-1 reverse transcriptase (HIV-1 RT) was purchased from Abcam (cat#ab63979); purchased Abcam ab63979
Excerpt: HIV-1 reverse transcriptase (HIV-1 RT) was purchased from Abcam (cat#ab63979). Recombinant HBV polymerase (Hepatitis B virus genotype D subtype ayw, full length) was cloned using the baculovirus system, expressed in sf9 cells, and purified with similar strategy and methods described by Lanford et al.. A DNA primer (5′-[…]-3′) was synthesized by IDTDNA and a 358-nt RNA template was synthesized in-house using Megascript T7 transcription kit (ThermoFisher, cat#AM1334). dNTPs were purchased from Thermo Fisher and ^3H-dTTP from Perkin Elmer. Filter plates were purchased from Millipore (cat#MABN0V050) and microscint-20 was purchased from Perkin Elmer (cat#6013621).
The RNA-dependent DNA polymerization (RdDp) activity of HIV-1 RT was measured by the incorporation of radioactively labeled nucleotides by HIV-1 RT into acid-insoluble DNA products from the DNA primer primed RNA template. To test compound inhibition, the reactions were performed at 30 °C for 40 min in a reaction mixture containing reaction buffer (50 mM Tris-Cl, pH 7.5, 100 mM KCl, 12.5 mM MgCl2, 4 mM DTT), 1 nM HIV-1 RT, 0.1 µM DNA primer, 0.02 µM RNA template, 10% DMSO, 0.1 µM dATP, 1 µM dGTP, 0.1 µM dCTP, 0.32 µM ^3H-dTTP, and compounds at various concentrations. The 50 µL reactions were performed in 96-well plates. The reactions were quenched with a 60 µL cold mixture of 20% (w/v) TCA and 0.5 mM ATP and incubated at 4 °C for 1 h. The reactions were loaded onto 96-well filter plates. The filters on plates were washed three times with 10% TCA and once with 70% ethanol on a Millipore plate wash station with vacuum applied. The filters on the plate were air-dried and 40 μL Microscint-20 was added to each well. The acid-precipitated tritiated DNA products retained on the filters were detected by a Trilux MicroBeta scintillation reader (Perkin Elmer).
All data were analyzed with GraphPad Prism. The compound concentration at which the enzyme-catalyzed rate was reduced by 50% (IC50) was calculated by fitting the data to the equation Y = % Min + (% Max − % Min) / (1 + 10^((logIC50-X)*h)), where Y corresponds to the percent inhibition to the enzyme activity, % Min is the residual inhibition activity without compound, % Max is the maximum inhibition of enzyme activity at saturating compound concentration, and X corresponds to the log of compound concentrations, and h is the hillslope.

human DNA polymerase β = target: T2, human DNA polymerase β (Homo sapiens, UniProt P06746); assay: Human DNA polymerase β DdDp assay; assay type: biochemical
T2 construct: purchased CHIMERx 1077-1
Experimental: The DNA-dependent DNA polymerization (DdDp) activity of human DNA polymerases α, β, and γ was measured as described previously. Briefly, the assays were run with 5 U/mL recombinant DNA polymerase α (CHIMERx, cat#1075-1), 0.5 U/mL recombinant DNA polymerase β (CHIMERx, cat#1077-1), or 0.1 μg/mL recombinant DNA polymerase γ (Abcam, cat#196066), 62 μg/mL activated calf thymus DNA, 50 mM Tris-HCl (pH 8.0), 60 mM KCl, 5 mM MgCl2, 4 mM dithiothreitol (DTT), 0.1 mg/mL BSA, 2 μM dCTP, 2 μM dATP, 2 μM dGTP, 0.05 μCi/μL ^3H-dTTP (Perkin Elmer) and compounds at various concentrations at 30 °C for 2 h. The 50 μL reactions were processed following the same filter plate method as described above for HIV-1 RT. Acid-precipitated tritiated DNA products retained on the filters were detected by a Trilux MicroBeta scintillation reader (Perkin Elmer). All data were analyzed as described above for HIV-1 RT.

Compound: Nc1ncnc2c1ncn2[C@@H]1OC[C@](F)(COP(=O)(O)OP(=O)(O)OP(=O)(O)O)[C@H]1CO [Compound 38, ((3S,4S,5R)-5-(6-Amino-9H-purin-9-yl)-3-fluoro-4-(hydroxymethyl)tetrahydrofuran-3-yl)methyl triphosphate]
- pIC50 [1]: 6.49
- inhibition of HIV-1 RT [1]: potent inhibitor of HIV-1 RT
- pIC50 (human DNA polymerase β): < 4.00
